From the supplement of paper PMC10307832

How the values were obtained:
Assay in all cases: relative viability (nuclei count vs DMSO), 5 days (fraction); higher = more cells survive
[1] = compound: C[C@H]([C@@H](C(=O)N)NC(=O)[C@@H]1CSSC[C@@H](C(=O)N[C@H](C(=O)N[C@@H](C(=O)N[C@H](C(=O)N1)CCCCN)CC2=CNC3=CC=CC=C32)CC4=CC=C(C=C4)O)NC(=O)[C@@H](CC5=CC=CC=C5)N)O [CAP-232] + CC(=O)Nc1cccc(-n2c(=O)n(C3CC3)c(=O)c3c(Nc4ccc(I)cc4F)n(C)c(=O)c(C)c32)c1 [Trametinib] (partner 0.02 µM)
Summary of the method: (§1)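 Dosing by pin tool came one day after lung cancer cell lines were seeded in 1536-well plates, using either one drug or a fixed anchor-drug dose plus five library-drug doses (not always all listed) in √10 steps. After 5 days, nuclei were counted on 4× images. Relative viability is treated-well nuclei count divided by vehicle-well nuclei count, and values are medians of duplicate plates.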

[2] = compound: C[C@H]([C@@H](C(=O)N)NC(=O)[C@@H]1CSSC[C@@H](C(=O)N[C@H](C(=O)N[C@@H](C(=O)N[C@H](C(=O)N1)CCCCN)CC2=CNC3=CC=CC=C32)CC4=CC=C(C=C4)O)NC(=O)[C@@H](CC5=CC=CC=C5)N)O [CAP-232] + CS(=O)(=O)N1CCN(Cc2cc3nc(-c4cccc5[nH]ncc45)nc(N4CCOCC4)c3s2)CC1 [Pictilisib] (partner 1 µM)
Summary of the method: as §1

[3] = compound: C[C@H]([C@@H](C(=O)N)NC(=O)[C@@H]1CSSC[C@@H](C(=O)N[C@H](C(=O)N[C@@H](C(=O)N[C@H](C(=O)N1)CCCCN)CC2=CNC3=CC=CC=C32)CC4=CC=C(C=C4)O)NC(=O)[C@@H](CC5=CC=CC=C5)N)O [CAP-232] + C[C@@H](Oc1cc(-c2cnn(C3CCNCC3)c2)cnc1N)c1c(Cl)ccc(F)c1Cl [Crizotinib] (partner 1 µM)
Summary of the method: as §1

[4] = compound: C[C@H]([C@@H](C(=O)N)NC(=O)[C@@H]1CSSC[C@@H](C(=O)N[C@H](C(=O)N[C@@H](C(=O)N[C@H](C(=O)N1)CCCCN)CC2=CNC3=CC=CC=C32)CC4=CC=C(C=C4)O)NC(=O)[C@@H](CC5=CC=CC=C5)N)O [CAP-232] + NC(=O)Nc1cc(-c2cccc(F)c2)sc1C(=O)N[C@H]1CCCNC1 [AZD7762] (partner 0.2 µM)
Summary of the method: as §1

[5] = compound: C[C@H]([C@@H](C(=O)N)NC(=O)[C@@H]1CSSC[C@@H](C(=O)N[C@H](C(=O)N[C@@H](C(=O)N[C@H](C(=O)N1)CCCCN)CC2=CNC3=CC=CC=C32)CC4=CC=C(C=C4)O)NC(=O)[C@@H](CC5=CC=CC=C5)N)O [CAP-232] + O=C(c1cc(Cc2n[nH]c(=O)c3ccccc23)ccc1F)N1CCN(C(=O)C2CC2)CC1 [Olaparib] (partner 8 µM)
Summary of the method: as §1

Cell Line	relative viability ([1]; first compound 0.4 µM)	relative viability ([1]; first compound 1.265 µM)	relative viability ([1]; first compound 4 µM)	relative viability ([1]; first compound 12.65 µM)	relative viability ([2]; first compound 0.4 µM)	relative viability ([2]; first compound 1.265 µM)	relative viability ([2]; first compound 4 µM)	relative viability ([2]; first compound 12.65 µM)	relative viability ([3]; first compound 0.4 µM)	relative viability ([3]; first compound 1.265 µM)	relative viability ([3]; first compound 4 µM)	relative viability ([3]; first compound 12.65 µM)	relative viability ([4]; first compound 0.4 µM)	relative viability ([4]; first compound 1.265 µM)	relative viability ([4]; first compound 4 µM)	relative viability ([4]; first compound 12.65 µM)	relative viability ([5]; first compound 0.4 µM)	relative viability ([5]; first compound 1.265 µM)	relative viability ([5]; first compound 4 µM)	relative viability ([5]; first compound 12.65 µM)
EMC-BAC-2	0.757	0.864	0.859	0.415	0.511	0.51	0.534	0.48	0.794	0.753	0.764	0.709	1.28	1.05	1.12	0.828	0.52	0.47	0.469	0.398
NCI-H661	0.523	0.536	0.578	0.377	0.402	0.377	0.416	0.389	1	0.947	1.05	1.13					0.768	0.771	0.8	0.683
LU99A	0.283	0.634	0.553	0.444	0.376	0.307	0.328	0.292	0.486	0.652	0.513	0.561	0.422	0.359	0.269	0.335	0.233	0.232	0.332	0.306
LK-2	0.438	0.687	0.711	0.563	0.42	0.608	0.494	0.61	0.216	0.251	0.181	0.199	0.357	0.274	0.322	0.376	0.762	0.834	0.702	0.811
NCI-H3122	0.222	0.194	0.293	0.24	0.399	0.573	0.568	0.566	0.274	0.313	0.308	0.277	0.984	1.08	1.14	0.958	0.664	0.656	0.847	0.546
NCI-H2347	0.34	0.255	0.256	0.241	0.412	0.764	0.894	0.508	0.794	0.753	0.0086	0.544	0.733	0.746	0.726	0.662	0.651	0.528	0.606	0.598
NCI-H1563					0.677	0.626	0.689	0.486	0.965	0.911	0.835	0.777								
HCC-827	0.469	0.543	0.491	0.549	0.842	1.1	0.896	1.05	0.932	1.02	0.784	0.963	0.19	0.204	0.174	0.182	0.699	0.627	0.622	0.672
NCI-H1666	0.699	0.859	0.924	0.734	0.44		0.356	0.248	1.03		0.829	0.852	0.918	0.882	0.859	0.908	0.819	0.75	0.816	0.664
NCI-H358	0.111	0.138	0.13	0.098	0.28	0.301	0.298	0.402	0.435	0.426	0.473	0.511	0.466	0.406	0.376	0.318	0.454	0.677	0.783	0.465
201T	0.707	0.698	0.729	0.677	0.765	0.657	0.678	0.713	1.13	1.02	1.04	1.04	0.636	0.716	0.643	0.643	0.892	0.833	0.871	0.854
RERF-LC-KJ	0.927	0.778	0.784	0.566	0.563	0.623	0.538	0.42	0.944	0.919	0.851	0.829	1.01	1.03	0.997	0.914	0.98	0.893	1.03	0.721
NCI-H2405	0.416	0.673	0.558	0.447	0.372	0.441	0.565	0.322	0.76	0.848	0.876	0.843	0.822	0.8	0.765	0.524	0.836	0.957	0.831	0.53
LXF-289	0.657	0.687	0.657	0.713	0.817	0.768	0.755	0.798	0.843	0.803	0.784	0.841	1.19	1.16	1.15	1.27	1.09	1.07	1.12	1.08
IA-LM					0.359	0.365	0.39	0.146	0.852	0.928	0.892	0.242					0.784	0.86	0.993	0.405
